Laboratory results as given in ChEMBL document CHEMBL5113480, “Discovery of novel biphenyl-substituted pyridone derivatives as potent non-nucleoside reverse transcriptase inhibitors with promising oral bioavailability” (Eur J Med Chem, 2022).

How the values were obtained:
[1] = system: Human immunodeficiency virus 1; test: Antiviral activity against HIV-1 K103N-Y181C mutant infected in human MT4 cells assessed as reduction in viral replication by MTT assay; type: functional, organism-based; details: Human immunodeficiency virus 1, K103N-Y181C mutant
[2] = Cytotoxicity against human MT4 cells assessed as reduction on cell growth by MTT assay; type: toxicity, cell-based
[3] = system: Human immunodeficiency virus 1; test: Antiviral activity against HIV-1 Y188L mutant infected in human MT4 cells assessed as reduction in viral replication by MTT assay; type: functional, organism-based; details: Human immunodeficiency virus 1, Y188L mutant
[4] = Selectivity index, ratio of CC50 for cytotoxicity against human MT4 cells to EC50 of Anti-HIV activity against HIV-1 IIIB infected in human MT4 cells; type: toxicity, cell-based; details: read-out: Ratio CC50/EC50
[5] = system: Human immunodeficiency virus 1; test: Antiviral activity against HIV-1 Y181C mutant infected in human MT4 cells assessed as reduction in viral replication by MTT assay; type: functional, organism-based; details: Human immunodeficiency virus 1, Y181C mutant
[6] = system: Human immunodeficiency virus 1; test: Antiviral activity against HIV-1 IIIB infected in human MT4 cells assessed as reduction in viral replication by MTT assay; type: functional, organism-based; details: Human immunodeficiency virus 1, IIIB
[7] = target: Human immunodeficiency virus type 1 reverse transcriptase (Human immunodeficiency virus 1, UniProt Q72547); test: Inhibition of wild type HIV-1 Reverse transcriptase
[8] = system: Human immunodeficiency virus 1; test: Antiviral activity against HIV-1 L100I mutant infected in human MT4 cells assessed as reduction in viral replication by MTT assay; type: functional, organism-based; details: Human immunodeficiency virus 1, L100I mutant
[9] = system: Human immunodeficiency virus 1; test: Antiviral activity against HIV-1 ROD infected in human MT4 cells assessed as reduction in viral replication by MTT assay; type: functional, organism-based
[10] = system: Human immunodeficiency virus 1; test: Antiviral activity against HIV-1 F227L-V106A mutant infected in human MT4 cells assessed as reduction in viral replication by MTT assay; type: functional, organism-based; details: Human immunodeficiency virus 1, F227L-V106A mutant
[11] = system: Human immunodeficiency virus 1; test: Antiviral activity against HIV-1 K103N mutant infected in human MT4 cells assessed as reduction in viral replication by MTT assay; type: functional, organism-based; details: Human immunodeficiency virus 1, K103N mutant
[12] = system: Human immunodeficiency virus 1; test: Antiviral activity against HIV-1 E138K mutant infected in human MT4 cells assessed as reduction in viral replication by MTT assay; type: functional, organism-based; details: Human immunodeficiency virus 1, E138K mutant

| SMILES | EC50 [1] [µM] | CC50 [2] [µM] | EC50 [3] [µM] | selectivity ratio [4] | EC50 [5] [µM] | EC50 [6] [µM] | IC50 [7] [µM] | EC50 [8] [µM] | EC50 [9] [µM] | EC50 [10] [µM] | EC50 [11] [µM] | EC50 [12] [µM] |
| --- | --- | --- | --- | --- | --- | --- | --- | --- | --- | --- | --- | --- |
| Cc1cc(Oc2c(C(F)(F)F)ccn(Cc3n[nH]c(=O)n3C)c2=O)ccc1-c1ccc(F)c(C#N)c1 | > 35 | 42.5 | > 35 | 70.6 | 6.91 | 0.6 | 1.46 | 1.58 | > 35 | > 35 | 2.33 | 1.37 |
| Cc1cc(Oc2c(C(F)(F)F)ccn(Cc3n[nH]c(=O)n3C)c2=O)ccc1-c1cccc(C#N)c1 | 33 | 82.7 | 38.8 | 118 | 6.38 | 0.7 | 1.53 | 1.34 | > 35 | > 35 | 2.09 | 1.01 |
| Cn1c(Cn2ccc(C(F)(F)F)c(Oc3cc(C#N)cc(-c4cc(F)cc(C#N)c4)c3)c2=O)n[nH]c1=O | 0.42 | 84.4 | 0.88 | 2810 | 0.18 | 0.03 | 0.17 | 0.05 | > 35 | > 35 | 0.026 | 0.062 |
| Cn1c(Cn2ccc(C(F)(F)F)c(Oc3cc(C#N)cc(-c4ccc(F)cc4)c3)c2=O)n[nH]c1=O | 1.46 | > 267 | 3.56 | > 4840 | 0.34 | 0.053 | 0.11 | 0.088 | > 35 | > 35 | 0.042 | 0.12 |
| Cn1c(Cn2ccc(C(F)(F)F)c(Oc3ccc(-c4cccc(C#N)c4)cc3F)c2=O)n[nH]c1=O | > 35 | 35.3 | > 35 | 9.6 | > 35 | 3.68 | 5 | 4.93 | > 35 | > 35 | 7.38 | 5.41 |
| Cc1cc(-c2cccc(C#N)c2)ccc1Oc1c(C(F)(F)F)ccn(Cc2n[nH]c(=O)n2C)c1=O | 6.69 | 27.2 | > 35 | 20.2 | 4.75 | 1.35 | 4.73 | 1.38 | > 35 | > 35 | 1.04 | 1.81 |
| Cc1cccc(-c2ccc(Oc3c(C(F)(F)F)ccn(Cc4n[nH]c(=O)n4C)c3=O)cc2C)c1 | > 35 | 23.8 | > 35 | 5.43 | 7.51 | 4.38 | 6.54 | 3.23 | > 35 | > 35 | > 35 | > 35 |
| Cn1c(Cn2ccc(C(F)(F)F)c(Oc3ccc(-c4ccc(C#N)cc4)cc3)c2=O)n[nH]c1=O | > 35 | 74.3 | > 35 | 11.9 | 38.8 | 6.23 | 15.9 | 7.68 | > 35 | > 35 | 26.9 | 23.7 |
| Cc1cc(Oc2c(C(F)(F)F)ccn(Cc3n[nH]c(=O)n3C)c2=O)ccc1-c1cc(F)cc(C#N)c1 | > 35 | 45.6 | > 35 | 29.4 | > 35 | 1.55 | 3.67 | 3.84 | > 35 | > 35 | 8.02 | 2.54 |
| Cn1c(Cn2ccc(C(F)(F)F)c(Oc3c(F)cc(-c4ccc(F)c(C#N)c4)cc3F)c2=O)n[nH]c1=O | > 35 | 18.9 | > 35 | 30.7 | 4.69 | 0.62 | 1.65 | 1.61 | > 35 | > 35 | 1.2 | 2.09 |
| COc1cc(-c2cccc(C#N)c2)ccc1Oc1c(C(F)(F)F)ccn(Cc2n[nH]c(=O)n2C)c1=O | > 35 | 126 | > 35 | 14.8 | 13.4 | 8.47 | 28.6 | 5.61 | > 35 | > 35 | 12 | 18.5 |
| Cc1cc(-c2cc(F)cc(C#N)c2)ccc1Oc1c(C(F)(F)F)ccn(Cc2n[nH]c(=O)n2C)c1=O | 6.89 | 23.3 | > 35 | 17.6 | 5.96 | 1.33 | 5.34 | 1.9 | > 35 | > 35 | 1.27 | 1.9 |
| Cc1ccccc1-c1ccc(Oc2c(C(F)(F)F)ccn(Cc3n[nH]c(=O)n3C)c2=O)cc1F | 115 | 33.8 | 104 | 8.6 | 5.54 | 3.93 | 3.21 | 5.3 | > 35 | > 35 | 7.78 | 4.51 |
| Cn1c(Cn2ccc(C(F)(F)F)c(Oc3ccc(-c4cccc(C#N)c4)cc3Cl)c2=O)n[nH]c1=O | > 35 | 22.9 | > 35 | 5.62 | > 35 | 4.07 | 7.21 | 2.35 | > 35 | > 35 | 2.92 | 3.56 |
| Cc1cc(-c2ccc(F)cc2)ccc1Oc1c(C(F)(F)F)ccn(Cc2n[nH]c(=O)n2C)c1=O | > 35 | 26 | > 35 | 5.15 | > 35 | 5.05 | 5.4 | 3.26 | > 35 | > 35 | 3.36 | 3.94 |
| Cn1c(Cn2ccc(C(F)(F)F)c(Oc3c(F)cc(-c4cccc(F)c4)cc3F)c2=O)n[nH]c1=O | > 35 | 25.4 | > 35 | 4.42 | > 35 | 5.74 | 26.3 | 4.15 | > 35 | > 35 | 6.34 | 6.81 |
| Cc1cc(Oc2c(C(F)(F)F)ccn(Cc3n[nH]c(=O)n3C)c2=O)ccc1-c1ccc(C#N)cc1 | > 35 | 52.1 | > 35 | 24 | 8.83 | 2.17 | 4.2 | 2.33 | > 35 | > 35 | 8.35 | 3.68 |
| Cn1c(Cn2ccc(C(F)(F)F)c(Oc3cc(C#N)cc(-c4ccc(F)c(C#N)c4)c3)c2=O)n[nH]c1=O | 1.01 | 87.9 | 1.52 | 2060 | 0.45 | 0.043 | 0.29 | 0.089 | > 35 | > 35 | 0.051 | 0.077 |
| COc1cc(-c2cc(F)cc(C#N)c2)ccc1Oc1c(C(F)(F)F)ccn(Cc2n[nH]c(=O)n2C)c1=O | > 35 | 113 | > 35 | 10.4 | 14.2 | 10.8 | 27.8 | 7.77 | > 35 | > 35 | 16 | 20.5 |
| Cn1c(Cn2ccc(C(F)(F)F)c(Oc3ccc(-c4cccc(C#N)c4)c(F)c3F)c2=O)n[nH]c1=O | > 35 | 48.8 | > 35 | 50.8 | 8.36 | 0.96 | 1.31 | 1.59 | > 35 | > 35 | 2.87 | 1.6 |
| Cn1c(Cn2ccc(C(F)(F)F)c(Oc3cc(C#N)cc(-c4cccc(F)c4)c3)c2=O)n[nH]c1=O | 0.31 | 19.1 | 0.83 | 1270 | 0.054 | 0.015 | 0.056 | 0.021 | > 35 | > 35 | 0.012 | 0.021 |
| Cn1c(Cn2ccc(C(F)(F)F)c(Oc3ccc(-c4ccc(F)c(C#N)c4)cc3Cl)c2=O)n[nH]c1=O | > 35 | 24.4 | > 35 | 5.39 | > 35 | 4.53 | 10.3 | 3.31 | > 35 | > 35 | 3.87 | 6.78 |
